Experimental data as given in US20260000676A1, “CHROMAN DERIVATIVES AS ESTROGEN RECEPTOR DEGRADERS” (THE REGENTS OF THE UNIVERSITY OF MICHIGAN, priority 2022, published 2026).

How the values were obtained:
ERα_LBD(GST) = ERα_LBD(GST) (Homo sapiens (Human), UniProt P03372); experiment: LanthaScreen TR-FRET ERα competitive binding assay; settings: read-out: ERα HTRF IC50
Protocol: • 1. ERα_LBD(GST) protein: 4 nM • 2. Tb Anti-GST: 2 nM • 3. Fluormone ES2 Green tracer: 3 nM • 4. Incubation time: 60 min • 5. DMSO: 1% • 6. Assay buffer: Adding 1M DTT to Nuclear receptor Buffer K for final 5 mM DTT. • 7. ZPE: 1% DMSO • 8. HPE: 1 μM ARV_471 • 9. LanthaScreen® TR-FRET ERα Competitive Binding Assay (ThermoFisher, #A15887)
• 1) Cherry pick 2 μL 10 mM compound stock to column 1 of a 384 intermediate plate • 2) Add 18 μL DMSO to column 1 to dilute compound to 1 mM. • 3) Transfer 10 μL 1 mM compound to column 1 of a LDV plate. • 2) Add 6 μl DMSO to column 2-10 of the LDV plate. • 3) Compounds undergo 3-fold serial dilution (3 μL+6 μL) in DMSO. • 4) Transfer 120 nL compound solution to assay plate. • ZPE: 120 nL 100% DMSO
Prepare complete nuclear receptor buffer K by adding 1 M DTT to nuclear receptor buffer K for a final concentration of 5 mM DTT. Complete nuclear receptor buffer K must be prepared fresh daily. Prepare 2× protein solution using complete nuclear receptor buffer K containing 8 nM ERα_LBD(GST) and 4 nM Tb Anti-GST. Then, prepare 2× Fluormone ES2 Green tracer (6 nM) using complete nuclear receptor buffer K. Add 6 μL 2× Fluormone ES2 green tracer into a compound plate (PerkinElmer 6008289) by dragonfly with one-tips-addition. Subsequently, add 6 μL 2× protein solution into the plate. Briefly and gently mix the 384-well plate on a plate shaker and incubate at room temperature protected from light for 60 min. The plate is sealed with a cover to minimize evaporation. Read the plate at wavelengths of 520 nm and 495 nm. Calculate the TR-FRET ratio by dividing the emission signal at 520 nm by the emission signal at 495 nm. Generate a binding curve by plotting the emission ratio vs. the log [ligand]. To determine the IC50 value, fit the data using XL-fit for a sigmoidal dose-response.

ER [1] = biological target: T1, ER (Homo sapiens (Human), UniProt P03372); experiment: In-cell western (ICW) ER degradation assay in MCF-7 cells; format: cell-based; settings: MCF7, 16 hrs; for Dmax: MCF7, maximal ER degradation; for DC50: ER degradation; for MCF7 Dmax %: maximal ER degradation
ER [2] = biological target: T1, ER; experiment: In-cell western (ICW) ER degradation assay in T47D cells; format: cell-based; settings: 16 hrs; for Dmax / T47D Dmax %: maximal ER degradation; for DC50: ER degradation
CRBN/DDB1 = CRBN/DDB1 (Homo sapiens (Human), UniProt Q96SW2); experiment: HTRF binding assay to CRBN/DDB1; settings: read-out: CRBN HTRF IC50
Protocol: The binding potency was determined using HTRF assay technology (Perkin Elmer). Compounds were serially diluted in DMSO and 0.2 μL volume was transferred to white 384-well plate.

ERα_LBD(GST), sequence (P03372 311-547): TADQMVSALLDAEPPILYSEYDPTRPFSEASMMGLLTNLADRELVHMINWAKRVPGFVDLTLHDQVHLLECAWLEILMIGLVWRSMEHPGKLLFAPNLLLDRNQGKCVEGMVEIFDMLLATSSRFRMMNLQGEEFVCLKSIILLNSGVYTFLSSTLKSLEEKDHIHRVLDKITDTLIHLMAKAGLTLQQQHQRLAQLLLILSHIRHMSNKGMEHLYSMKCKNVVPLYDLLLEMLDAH
CRBN/DDB1, sequence (Q96SW2 whole entry): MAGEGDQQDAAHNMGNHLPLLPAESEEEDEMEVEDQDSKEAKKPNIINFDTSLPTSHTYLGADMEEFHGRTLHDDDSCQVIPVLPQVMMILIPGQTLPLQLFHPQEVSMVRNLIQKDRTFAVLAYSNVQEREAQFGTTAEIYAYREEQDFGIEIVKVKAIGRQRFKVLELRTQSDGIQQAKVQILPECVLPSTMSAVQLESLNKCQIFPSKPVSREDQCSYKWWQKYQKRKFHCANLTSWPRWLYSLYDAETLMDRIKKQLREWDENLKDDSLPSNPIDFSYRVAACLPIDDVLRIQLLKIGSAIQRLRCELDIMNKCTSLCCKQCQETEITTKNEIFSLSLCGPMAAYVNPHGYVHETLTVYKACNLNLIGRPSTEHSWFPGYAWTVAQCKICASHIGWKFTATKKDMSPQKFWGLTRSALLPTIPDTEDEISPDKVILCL
CRBN/DDB1, sequence (Q16531 whole entry partner): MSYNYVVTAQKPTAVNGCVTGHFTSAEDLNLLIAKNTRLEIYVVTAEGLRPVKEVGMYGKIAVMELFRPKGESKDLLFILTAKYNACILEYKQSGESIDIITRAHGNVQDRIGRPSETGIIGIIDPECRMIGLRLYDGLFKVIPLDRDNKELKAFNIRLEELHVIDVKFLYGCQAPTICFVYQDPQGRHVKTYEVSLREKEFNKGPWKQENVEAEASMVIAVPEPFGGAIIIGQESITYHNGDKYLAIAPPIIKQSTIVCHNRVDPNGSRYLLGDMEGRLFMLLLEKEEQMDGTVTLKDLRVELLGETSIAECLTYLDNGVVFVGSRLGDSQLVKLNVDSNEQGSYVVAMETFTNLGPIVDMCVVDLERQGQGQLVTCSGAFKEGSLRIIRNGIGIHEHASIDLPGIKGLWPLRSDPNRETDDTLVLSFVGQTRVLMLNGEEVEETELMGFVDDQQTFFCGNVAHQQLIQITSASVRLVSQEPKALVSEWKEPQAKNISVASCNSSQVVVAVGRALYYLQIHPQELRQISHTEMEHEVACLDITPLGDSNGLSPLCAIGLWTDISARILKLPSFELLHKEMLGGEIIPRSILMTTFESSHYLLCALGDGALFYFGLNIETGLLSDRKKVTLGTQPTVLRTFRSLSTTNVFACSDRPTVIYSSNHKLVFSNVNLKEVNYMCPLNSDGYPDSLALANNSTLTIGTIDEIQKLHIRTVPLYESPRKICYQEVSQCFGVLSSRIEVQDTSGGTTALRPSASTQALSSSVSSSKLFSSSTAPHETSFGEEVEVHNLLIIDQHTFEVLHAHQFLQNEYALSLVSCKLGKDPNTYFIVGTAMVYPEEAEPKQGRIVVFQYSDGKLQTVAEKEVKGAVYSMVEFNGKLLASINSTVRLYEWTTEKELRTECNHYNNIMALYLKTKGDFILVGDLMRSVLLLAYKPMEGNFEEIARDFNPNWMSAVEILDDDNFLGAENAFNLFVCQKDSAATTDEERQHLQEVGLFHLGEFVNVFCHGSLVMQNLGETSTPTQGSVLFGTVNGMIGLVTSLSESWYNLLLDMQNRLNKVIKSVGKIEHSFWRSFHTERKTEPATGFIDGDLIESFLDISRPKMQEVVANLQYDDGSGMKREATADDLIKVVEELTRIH
T1 sequence (P03372 whole entry): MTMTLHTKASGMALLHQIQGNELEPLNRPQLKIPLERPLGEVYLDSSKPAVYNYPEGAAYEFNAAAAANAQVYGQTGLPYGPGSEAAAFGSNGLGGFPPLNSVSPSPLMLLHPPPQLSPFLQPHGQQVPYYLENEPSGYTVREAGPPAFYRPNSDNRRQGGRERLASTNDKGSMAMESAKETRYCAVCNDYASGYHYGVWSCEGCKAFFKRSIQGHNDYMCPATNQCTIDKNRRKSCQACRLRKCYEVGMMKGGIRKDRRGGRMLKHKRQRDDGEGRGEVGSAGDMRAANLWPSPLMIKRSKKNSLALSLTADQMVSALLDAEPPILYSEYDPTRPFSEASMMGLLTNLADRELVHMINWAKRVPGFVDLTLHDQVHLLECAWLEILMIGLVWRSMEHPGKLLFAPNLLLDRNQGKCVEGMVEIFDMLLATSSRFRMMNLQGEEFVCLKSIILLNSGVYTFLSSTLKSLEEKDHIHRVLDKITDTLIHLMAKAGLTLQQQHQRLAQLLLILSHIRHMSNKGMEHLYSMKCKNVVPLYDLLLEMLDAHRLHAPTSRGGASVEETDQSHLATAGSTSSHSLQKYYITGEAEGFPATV

| Structure (SMILES) | IC50 (ERα_LBD(GST)) [nM] | Dmax (ER [1]) [%] | Dmax (ER [2]) [%] | IC50 (CRBN/DDB1) [nM] | DC50 (ER [1]) [nM] | MCF7 Dmax % (ER [1]) | DC50 (ER [2]) [nM] | T47D Dmax % (ER [2]) |
| --- | --- | --- | --- | --- | --- | --- | --- | --- |
| COc1cc(N2CCC(CN3CCN4c5cc6c(cc5OC[C@H]4C3)C(=O)N(C3CCC(=O)NC3=O)C6)CC2)ccc1[C@@H]1c2ccc(O)cc2OC[C@@H]1c1ccccc1 (single isomer, unassigned) [Compound A84] | < 5 | 50 to 75 | 50 to 75 |  |  |  |  |  |
| COc1cc(N2CCC(CN3CCN4c5ccc6c(c5OC[C@@H]4C3)CN([C@@H]3CCC(=O)NC3=O)C6=O)CC2)ccc1[C@H]1c2ccc(O)cc2OC[C@H]1c1ccccc1 (single isomer, unassigned) [Compound A121] | < 5 | ≥ 75 | ≥ 75 |  |  |  |  |  |
| O=C1CCC(N2Cc3c(ccc4c3OC[C@H]3CN(CC5CCN(c6ccc([C@@H]7c8ccc(O)cc8OC[C@@H]7c7ccccc7)cc6)CC5)CCN43)C2=O)C(=O)N1 (single isomer, unassigned) [Compound A8, 3-((R)-7-((1-(4-((3S,4R)-7-hydroxy-3-phenylchroman-4-yl)phenyl)piperidin-4-yl)methyl)-1-oxo-1,3,5,5a,6,7,8,9-octahydro-2H-pyrazino[1′,2′:4,5][1,4]oxazino[2,3-e]isoindol-2-yl)piperidine-2,6-dione] | < 5 | 50 to 75 |  |  |  |  |  |  |
| COc1cc(N2CCC3(CC2)CC(CN2CCC4(CC2)COc2c4ccc4c2CN(C2CCC(=O)NC2=O)C4=O)C3)c(F)cc1[C@H]1c2ccc(O)cc2OC[C@H]1c1ccccc1 (stereo partly drawn) [Compound A130, 3-(1′-((7-(2-fluoro-4-((3R,4R)-7-hydroxy-3-phenylchroman-4-yl)-5-methoxyphenyl)-7-azaspiro[3.5]nonan-2-yl)methyl)-6-oxo-6,8-dihydro-2H,7H-spiro[furo[2,3-e]isoindole-3,4′-piperidin]-7-yl)piperidine-2,6-dione] | < 5 |  |  | 50 to 500 | < 1 | A (“A”; >=75%) | < 1 | A (“A”; >=75%) |
| COc1cc(N2CCC3(CC2)CC(CN2CCN4c5ccc6c(c5OC[C@@H]4C2)CN([C@@H]2CCC(=O)NC2=O)C6=O)C3)c(F)cc1[C@@H]1c2ccc(O)cc2OC[C@@H]1c1ccccc1 (single isomer, unassigned) [Compound A125] | < 5 | ≥ 75 | ≥ 75 |  | < 1 |  | < 1 |  |
| O=C1CCC(N2Cc3c(ccc4c3OC[C@H]3CN(CC5CCN(c6ncc([C@H]7c8ccc(O)cc8OC[C@H]7c7ccccc7)cn6)CC5)CCN43)C2=O)C(=O)N1 (single isomer, unassigned) [Compound A35] | < 5 | 25 to 50 | 50 to 75 | 50 to 500 | 1 to 10 |  | 1 to 10 |  |
| COc1cc(N2CCC(CN3CCN4c5cc6c(cc5OC[C@H]4C3)C(=O)N([C@@H]3CCC(=O)NC3=O)C6)CC2)ccc1[C@H]1c2ccc(O)cc2OC[C@H]1c1ccccc1 (single isomer, unassigned) [Compound A122] | < 5 | ≥ 75 | ≥ 75 |  | < 1 |  | < 1 |  |
| O=C1CCC(N2C(=O)c3cc4c(cc3C2=O)CN(CC(=O)N2CC3(CCN(c5ccc([C@@H]6c7ccc(O)cc7OC[C@@H]6c6ccccc6)cc5)CC3)C2)C4)C(=O)N1 (single isomer, unassigned) [Compound A26] | < 5 |  |  | 50 to 500 |  |  |  |  |
| O=C1CCC(N2Cc3cc4c(cc3C2=O)OC[C@@H]2CN(CC3CC5(CCN(c6ccc([C@H]7c8ccc(O)cc8OC[C@H]7c7ccccc7)cc6)CC5)C3)CCN42)C(=O)N1 (single isomer, unassigned) [Compound A27] | < 5 | 50 to 75 |  |  |  |  |  |  |
| O=C1CCC(N2Cc3cc4c(cc3C2=O)OCC42CCN(CC3CCC4(CC3)CN(c3ccc([C@H]5c6ccc(O)cc6OC[C@H]5c5ccccc5)cc3)C4)CC2)C(=O)N1 (stereo partly drawn) [Compound A99, 3-(1′-((2-(4-((3R,4S)-7-hydroxy-3-phenylchroman-4-yl)phenyl)-2-azaspiro[3.5]nonan-7-yl)methyl)-7-oxo-5,7-dihydro-2H,6H-spiro[furo[2,3-f]isoindole-3,4′-piperidin]-6-yl)piperidine-2,6-dione] | < 5 | 50 to 75 | 50 to 75 |  | < 1 |  | < 1 |  |
| O=C1CC[C@@H](N2Cc3c(ccc4c3OC[C@@H]3CN(C[C@@H]5COC6(CCN(c7ccc([C@H]8c9ccc(O)cc9OC[C@H]8c8ccccc8)cc7)CC6)C5)CCN43)C2=O)C(=O)N1 (single isomer, unassigned) [Compound A132] | < 5 | 50 to 75 | 50 to 75 |  | 1 to 10 |  | 1 to 10 |  |
| COc1cc(N2CCC(CN3CCN4c5ccc6c(c5OC[C@@H]4C3)CN([C@@H]3CCC(=O)NC3=O)C6=O)CC2)c(F)cc1[C@@H]1c2ccc(O)cc2OC[C@@H]1c1ccccc1 (single isomer, unassigned) [Compound A106] | < 5 | ≥ 75 | ≥ 75 |  | < 1 |  | < 1 |  |
| O=C1CCC(N2Cc3c(ccc4c3OC[C@H]3CN(CC5CC6(CCN(c7ccc([C@@H]8c9ccc(O)cc9OC[C@@H]8c8ccccc8)cn7)CC6)C5)CCN43)C2=O)C(=O)N1 (single isomer, unassigned) [Compound A66] | ≥ 5 |  |  |  | 1 to 10 | B (“B”: >50% and <75%) | 1 to 10 | B (“B”: >50% and <75%) |
| O=C1CC[C@@H](N2Cc3cc4c(cc3C2=O)OCC42CCN(CC3CCC4(CC3)CN(c3ccc([C@H]5c6ccc(O)cc6OC[C@H]5c5ccccc5)cc3)C4)CC2)C(=O)N1 [Compound A153, (R)-3-(1′-((2-(4-((3R,4S)-7-hydroxy-3-phenylchroman-4-yl)phenyl)-2-azaspiro[3.5]nonan-7-yl)methyl)-7-oxo-5,7-dihydro-2H,6H-spiro[furo[2,3-f]isoindole-3,4′-piperidin]-6-yl)piperidine-2,6-dione] | < 5 | 50 to 75 | ≥ 75 |  | < 1 |  | < 1 |  |
| O=C1CCC(N2Cc3cc(N4CCN(CC5CC6(CCN(c7ccc([C@@H]8c9ccc(O)cc9OC[C@@H]8c8ccccc8)cn7)CC6)C5)CC4)ccc3C2=O)C(=O)N1 (single isomer, unassigned) [Compound A68] | < 5 |  |  |  | 1 to 10 | B (“B”: >50% and <75%) | 1 to 10 | A (“A”; >=75%) |
| O=C1CCC(N2C(=O)c3cc4c(cc3C2=O)CN(CC(=O)N2CCC3(CC2)CCN(c2ccc([C@H]5c6ccc(O)cc6OC[C@H]5c5ccccc5)cc2)CC3)C4)C(=O)N1 (stereo partly drawn) [Compound A40, 2-(2,6-dioxopiperidin-3-yl)-6-(2-(9-(4-((3R,4S)-7-hydroxy-3-phenylchroman-4-yl)phenyl)-3,9-diazaspiro[5.5]undecan-3-yl)-2-oxoethyl)-6,7-dihydropyrrolo[3,4-f]isoindole-1,3(2H,5H)-dione] | ≥ 5 | 50 to 75 | 50 to 75 |  | 1 to 10 |  | < 1 |  |
| O=C1CCC(N2Cc3c(ccc4c3OC[C@H]3CN(CC5CCN(c6ccc([C@@H]7c8ccc(O)cc8OC[C@@H]7c7ccccc7)cc6F)CC5)CCN43)C2=O)C(=O)N1 (single isomer, unassigned) [Compound A9, 3-((R)-7-((1-(2-fluoro-4-((3S,4R)-7-hydroxy-3-phenylchroman-4-yl)phenyl)piperidin-4-yl)methyl)-1-oxo-1,3,5,5a,6,7,8,9-octahydro-2H-pyrazino[1′,2′:4,5][1,4]oxazino[2,3-e]isoindol-2-yl)piperidine-2,6-dione] | < 5 | 50 to 75 |  |  |  |  |  |  |
| O=C1CC[C@H](N2Cc3cc4c(cc3C2=O)OC[C@@H]2CN(CC3CC5(CCN(c6ccc([C@@H]7c8ccc(O)cc8OC[C@@H]7c7ccccc7)cc6)CC5)C3)CCN42)C(=O)N1 (single isomer, unassigned) [Compound A59] | < 5 | 50 to 75 | ≥ 75 |  | 1 to 10 |  | < 1 |  |
